US11204492B2, “Naphtyl based high index hydrophobic liquids and transmission recovery agents for liquid lens formulations” (CORNING INCORPORATED, priority 2018, dated 2021)
Converted amounts (≈) assume the structure as drawn.

Key:
[1] = Density of naphthalene based compounds and liquid lens liquids; type: physicochemical; set-up: Density at 20° C.: unit not given here; details: for Density at 20° C.: neat compound
[2] = Solubility in ethylene glycol; details: organic solvent or mixture
Viscosity at 20° C. = type: physicochemical; details: neat compound
Procedure: (§1) The following examples represent a variety of liquid lenses prepared according to Varioptic A39N0 design. The Varioptic A39N0 lens design includes a mechanical aperture of about 3.9 mm, a non-conductive fluid layer thickness of about 0.6 mm, and a conductive fluid layer thickness of about 1.8 mm. The properties measured for these electrowetting optical devices were performed at 20° C.
(§2) Example of the naphthalene based compounds disclosed herein have a listing of some of their physical properties listed below.

[3] = Refractive index at 589.3 nm; type: physicochemical; details: neat compound
Procedure: as §1, §2

Solubility in water = details: 20 °C

Structure (SMILES)	Density ([1]; comparative aliphatic oil, temperature not given)	solubility ([2]; 20 °C)	solubility ([2]; 85 °C)	Density at 20° C. [1]	Viscosity at 20° C. (Viscosity at 20° C.)	Index at 589.3 nm/20° C. [3]	solubility (Solubility in water)	Density ([1]; 25° C.)
CCCCCCCCCCCC [dodecane, reference compound]	0.75 g/mL	–	–	–	–	–	–	–
CCCCCCCC[Si](C)(C)c1ccc2ccccc2c1 [XI, 2-dimethyloctylsilane naphthalene]	–	440 µg/mL (≈ 1.47 mM)	680 µg/mL (≈ 2.28 mM)	0.95	25.9 cSt	1.54	–	–
[CH3][Ge]([CH3])([CH3])[c]1ccc2ccccc2c1 [VI, 2-trimethylgermane naphthalene]	–	3400 µg/mL	14800 µg/mL	1.19	6.1 cSt	1.59	6 µg/mL	–
CCCC[Si](C)(C)c1ccc2ccccc2c1 [IX, 2-dimethylbutylsilane naphthalene]	–	1100 µg/mL (≈ 4.54 mM)	2100 µg/mL (≈ 8.66 mM)	0.97	14.9 cSt	1.57	–	–
CCCc1ccc2ccccc2c1 [XIV, 2-propylnaphthalene]	–	–	–	0.98	–	1.58	–	–
CCc1ccc2ccccc2c1 [XIII, 2-ethylnaphthalene]	–	–	–	1.01	3.9 cSt	1.61	–	about 1.01 g/cm^3
c1ccc(Sc2ccc3ccccc3c2)cc1 [X, 2-phenylsulfur naphthalene]	–	–	–	1.16	33.8 cSt	1.69	–	–
C[CH2][Ge]([CH2]C)([CH2]C)[c]1ccc2ccccc2c1 [VII, 2-triethylgermane naphthalene]	–	1900 µg/mL	4200 µg/mL	1.14	10.6 cSt	1.58	–	–
Fc1cccc2ccccc12 [XII, 1-fluoronapthalene]	–	–	–	1.13	2.1 cSt	1.59	–	–
C[Si](C)(C)c1ccc2ccccc2c1 [VIII, 2-trimethylsilane naphthalene]	–	–	–	1.01	8.1 cSt	1.58	–	–
